Consider 9 compounds from patent publication US20230086683A1, “PLATELET STORAGE METHODS AND COMPOSITIONS” (Platefuse, Inc., priority 2020, published 2023).

Each structure is given as a SMILES string.

This assay deals with washed human platelet suspension. Put plainly: Inhibition of collagen-induced platelet aggregation (Lumi-Aggregometer). It counts as cell-based. The note with it: washed human platelets, 37° C., 2 min preincubation, collagen 1-4 μg/ml, read out at 6 min after induction, read-out: IC50 (concentration at which 50% aggregation is reached), platelet aggregation inhibitors. As for the experimental part: Platelet shape change in washed platelets was monitored using an aggregometer and the decrease in light transmittance following addition of an agonist (Huzoor et al., 1993). For the purpose of this analysis, collagen was used as the agonist. Briefly, a washed human platelet suspension was incubated at 37° C. in a Lumi-Aggregometer (Chrono-Log Corporation) with stirring at 900 rpm, followed by the addition of dimethylsulfoxide (DMSO) as a control vehicle, or various compounds dissolved in DMSO. After incubating the samples with the respective compound for 2 minutes, platelet aggregation was induced by, adding collagen (1-4 μg/ml) and the relative aggregation value was read out at 6 min after the induction. A dose response for each compound was derived.

For the compound `O=C(NNc1ccnc2ccccc12)c1ccc(Cl)c(Cl)c1` [UC-177617], the IC50 came out at 16.2 µM.

In the case of `O=C(NNc1ccnc2c(C(F)(F)F)cccc12)c1ccc(Cl)c(Cl)c1` [UC-177618], the IC50 is 1.5 µM.

Turning to `O=C(NNc1ccnc2cc(Cl)ccc12)c1ccc(Cl)c(Cl)c1` [UC-177619], the IC50 came to 1.4 µM.

`O=C(NNc1ccnc2ccccc12)c1cc2ccccc2[nH]1` [UC-177626]: the IC50 amounted to 10.1 µM.

With `O=C(NNc1ccnc2cc(C(F)(F)F)ccc12)c1cc2ccccc2[nH]1` [UC-177627], the IC50 is 4.3 µM.

Turning to `O=C(NNc1ccnc2c(C(F)(F)F)cccc12)c1cc2ccccc2[nH]1` [UC-177628], the IC50 amounted to 5.8 µM.

With `O=C(NNc1ccnc2cc(Cl)ccc12)c1cc2ccccc2[nH]1` [UC-177629], the IC50 is 2.3 µM.

Take `Cc1ccc(C(=O)NNc2ccnc3c(C(F)(F)F)cccc23)cc1` [UC-177633]: the IC50 stood at 2.3 µM.

Take `Cc1ccc(C(=O)NNc2ccnc3cc(Cl)ccc23)cc1` [UC-177634]: the IC50 amounted to 6.7 µM.
